Experiments:
P388 = assay: Cytotoxicity against mouse P388 cells after 72 hrs by MTT assay; format: functional, cell-based; settings: P388, 72 h
Pseudomonas aeruginosa = assay: Anti-Swarming activity against Pseudomonas aeruginosa PA01 at 100 ppm after 72 hrs; format: functional
Plasmodium falciparum = assay: Antimalarial activity against drug-sensitive Plasmodium falciparum NF54 infected in human erythrocytes after 48 hrs by Liquid scintillation counter; format: functional, organism-based; settings: NF54, 48 h

Compound	IC50 (P388) [nM]	Activity (Pseudomonas aeruginosa) [%]	IC50 (Plasmodium falciparum) [nM]
CC[C@@H](C)[C@@H]1NC(=O)CN(C)C(=O)[C@@H](Cc2ccccc2)N(C)C(=O)[C@H](C)NC(=O)[C@@H]([C@@H](C)CC)OC(=O)/C(C)=C/C[C@H](O)[C@H](C)[C@H]([C@@H](C)CC)OC(=O)[C@H](C)N(C)C1=O [LAGUNAMIDE A]	6.4	62	190
C/C=C(\C)[C@@H]1OC(=O)[C@H](C)N(C)C(=O)[C@H]([C@H](C)CC)NC(=O)CN(C)C(=O)[C@@H](Cc2ccccc2)N(C)C(=O)[C@H](C)NC(=O)[C@@H]([C@@H](C)CC)OC(=O)/C(C)=C/C[C@H](O)[C@@H]1C [LAGUNAMIDE B]	20.5	56	910
